Counter-ions that a name gives are not always drawn.
Legend:
Stomach Emptying = test: Effect on stomach emptying ([14C]glucose load) in rats (Example 25); assay type: in vivo; details: 0.33 mmoles/kg oral, 60 min after [14C]glucose load, mean ± S.E.
Procedure: Rats were trained to consume a 3 hr 70% glucose meal from 8 a.m. to 11 a.m. daily. On the experimental day, compounds were administered orally by intubation 30 min before a [^14 C]glucose load was given also by intubation. […] Sixty minutes later the rats were killed by decapitation; blood and stomachs were collected on ice.
Data are expressed as follows: dpm×10^3 per ml of serum and dpm×10^3 per stomach.

[1] = Anorectic activities of stereoisomers: 3-day food consumption and body weight gain in meal-fed rats; assay type: in vivo, Charles River female rats; details: 1.32 mmoles/kg oral, 3 days, mean ± S.E.
Procedure: Charles River female rats (Charles River Breeding Laboratories, Wilmington, Mass.), weighing 196 to 210 g, were individually housed in wire-bottomed cages in a temperature-regulated (22° C.) light-controlled room (12 hr light, 6 a.m. to 6 p.m. and 12 hr dark, 6 p.m. to 6 a.m.). Animals were fasted 48 hr, then meal-fed a 70% glucose diet from 8 to 11 a.m. Following 5 to 12 days alimentation on the meal-feeding regimen, rats were dosed with the appropriate compounds orally by intubation 1/2 hr before the 3 hr meal for 3 days. The total food consumption and body weight gained during the 3 day period were determined. The control group consisted of 16 rats, while the experimental group consists of 8 rats.

[2] = Effect of stereoisomers of chlorocitric acid on food consumption in meal-fed rats (Example 14); assay type: in vivo, Charles River female rats; details: mean ± S.E.
Procedure: Animals were fasted 48 hr, then meal-fed the 70% glucose diet described by A. C. […] Following 5 to 12 days alimentation on the meal-feeding regimen, rats were dosed with the appropriate compounds orally by intubation 1/2 hr before the 3 hr meal. Food cups were weighed immediately after the meal. The control group consisted of 5 to 10 rats, while the experimental group consisted of 4 to 6 rats.

[3] = 0.66 mmoles/kg oral, control 8.2 ± 1.2
[4] = 2.63 mmoles/kg oral, control 13.5 ± 0.8

Structure (SMILES) | Serum, total per ml (Stomach Emptying) [dpm × 10^3] | Stomach Contents, total per stomach (Stomach Emptying) [dpm × 10^3] | 3-Day Body Weight Gain [1] [g] | 3-Day Food Consumption [1] [g] | Food consumption [2, 3] [g] | Food consumption [2, 4] [g]
O=C(O)C[C@@](O)(C(=O)O)[C@H](Cl)C(=O)O [(+)-erythro-Chlorocitric acid, (+)-erythro-chlorocitric acid] | 5.0 ± 0.4 | 1832 ± 160 | -1.5 ± 2.3 | 31.8 ± 2.3 | 8.1 ± 1.6 | 10.5 ± 0.8
O=C(O)C[C@](O)(C(=O)O)[C@@H](Cl)C(=O)O [(-)-erythro-Chlorocitric acid, (-)-erythro-chlorocitric acid] | 5.1 ± 0.4 | 1491 ± 232 | -4.8 ± 3.2 | 24.5 ± 1.8 | 7.0 ± 1.9 | 7.2 ± 1.5
O=C(O)CC(O)(CC(=O)O)C(=O)O [Trisodium Citrate, reference compound] | 6.4 ± 0.1 | 1180 ± 208 | – | – | – | –
